Columns and labels:
[1] = Pharmacokinetic study in C57BL/6J mice; type: in vivo; conditions: mouse, plasma, C57BL/6J female mice; for Tmax: median, read-out: Tmax po (peak time of plasma concentration); for Cmax: read-out: Cmax po (peak concentration); for clearance: read-out: Cl—obs iv (clearance rate) (converted); for Vd: read-out: Vss iv (volume of distribution); for bioavailability: iv 5 mg/kg / po 10 mg/kg, read-out: F % (absolute bioavailability)
Experimental: Experimental Example 2: Pharmacokinetic Study of Compounds in C57BL/6J Mice
Compound 100, Compound 54, Compound 174, Compound 179, and Compound 253 were prepared into solutions with a mixed solvent formulated from 5% dimethyl sulfoxide, 20% (30% solutol) and 75% normal saline, respectively; the solution of each compound was administered to C57BL/6J female mice by gavage at a dose of 10 mg/kg; and the time points for blood collection were: 15 min, 30 min, 1 h, 2 h, 4 h, 6 h, 8 h and 24 h. The solution of the compound was administered to C57BL/6J female mice by intravenous bolus at a dose of 5 mg/kg, and the time points for blood collection were as follows: 5 min, 15 min, 30 min, 1 h, 2 h, 4 h, 6 h, 8 h, and 24 h.
Compound 1 was prepared into a solution with a mixed solvent formulated from 5% DME, 20% (30% solutol) and 75% normal saline; the solution of this compound was administered to C57BL/6J female mice by gavage at a dose of 10 mg/kg, and the time points for blood collection were: 15 min, 30 min, 1 h, 2 h, 4 h, 6 h, 8 h, and 24 h. The solution of the compound was administered to C57BL/6J female mice by intravenous bolus at a dose of 5 mg/kg, and the time points for blood collection were as follows: 5 min, 15 min, 30 min, 1 h, 2 h, 4 h, 6 h, 8 h, and 24 h.
Compound 195 was prepared into a solution with a mixed solvent formulated from 5% dimethyl sulfoxide, 20% PEG400 and 75% normal saline; the solution of this compound was administered to C57BL/6J female mice by gavage at a dose of 10 mg/kg; and the time points for blood collection were 15 min, 30 min, 1 h, 2 h, 4 h, 6 h, 8 h, and 24 b. The solution of the compound was administered to C57BL/6J female mice by intravenous bolus at a dose of 5 mg/kg, and the time points for blood collection were as follows: 5 min, 15 min, 30 min, 1 h, 2 b, 4 h, 6 h, 8 h, and 24 h.
(§1) Approximately 100 μL of blood was collected through the retroorbital venous plexus, and was then placed in an anticoagulant tube containing EDTA-K2. Blood samples were centrifuged at 12,000 rpm for 10 min at 4° C. to obtain plasma samples, and plasma was prepared within 30 min after blood collection. The plasma was stored in a −80° C. freezer before testing.
• 1. The samples were taken from the −80° C. freezer, thawed naturally at room temperature, and then vortexed for 5 min • 2. 10 μL of a plasma sample was precisely pipetted from different individuals into a 1.5 mL centrifuge tube. • 3. 300 μL of an internal standard working solution (the acetonitrile solution of tolbutamide) at a concentration of […] was added and mixed well. • 4. After vortexing for 5 min, the mixture was centrifuged at 12,000 rpm for 5 min. • 5. 50 μL of the supernatant was accurately pipetted into a 96-well plate preloaded with water at 150 μL/well. • 6. Vortexing was performed for 5 min for sufficient mixing, and LC-MS/MS analysis was then conducted.
(§2) The results of the concentrations of the compounds under test were output using Analyst 1.6.3 of AB. Parameters such as mean, standard deviation, coefficient of variation was calculated by Microsoft Excel (parameters directly output by Analyst 1.6.3 needed no calculation), and PK parameters were calculated by WinNonlin Phenoix 8.2 software NCA (Tmax as the median).

[2] = Pharmacokinetic study in SD male rats; type: in vivo; conditions: rat, plasma; for clearance: read-out: Cl—obs iv (clearance rate) (converted); for Vd: read-out: Vss iv (volume of distribution); for bioavailability: iv 1.0 mg/kg / po 5.0 mg/kg, read-out: F % (absolute bioavailability); for Tmax: median, read-out: Tmax po (peak time of plasma concentration); for Cmax: read-out: Cmax po (peak concentration)
Experimental: Experimental Example 3: Pharmacokinetic Study of Compounds in SD Male Rats
Compound 54, Compound 55, Compound 174, Compound 173, and Compound 264 were prepared into solutions with a mixed solvent formulated from 5% dimethyl sulfoxide, 20% (30% solutol) and 75% normal saline, respectively; the solution of each compound was administered to SD male rats by gavage at a dose of 5.0 mg/kg; and the time points for blood collection were: 15 min, 30 min, 1 h, 2 h, 4 h, 6 h, 8 h, 10 h and 24 h. The solution of the compound was administered to male SD rats by intravenous bolus at a dose of 1.0 mg/kg, and the time points for blood collection were as follows: 5 min, 15 min, 30 min, 1 h, 2 h, 4 h, 6 h, 8 h, 10 h, and 24 h.
as §1, with “On the day before administration, the jugular vein of each animal was cannulated; and after administration, about 300” for “Approximately 100”, “jugular vein,” for “retroorbital venous plexus,”, “and” for “and was”
• 1. The samples were taken from the −80° C. freezer, thawed naturally at room temperature, and then vortexed for 5 min. • 2. 30 μL of a plasma sample was precisely pipetted into a 1.5 mL centrifuge tube. • 3. 750 μL of an internal standard working solution (the acetonitrile solution of tolbutamide) at a concentration of […] was added and mixed well. • 4. After vortexing for 5 min, the mixture was centrifuged at 12,000 rpm for 5 min. • 5. 50 μL of the supernatant was accurately pipetted into a 96-well plate preloaded with water at 150 μL/well. • 6. Vortexing was performed for 5 min for sufficient mixing, and LC-MS/MS analysis was then conducted.
as §2

[3] = po, gavage 10 mg/kg, read-out: AUClast po (area under the drug-time curve for 0-24 h)
[4] = po, gavage 10 mg/kg, read-out: tz1/2 po (terminal elimination half-life) (converted)
[5] = intravenous bolus 5 mg/kg, read-out: AUClast iv (area under the drug-time curve for 0-24 h)
[6] = intravenous bolus 5 mg/kg, read-out: tz1/2 iv (terminal elimination half-life) (converted)
[7] = intravenous bolus 1.0 mg/kg, read-out: AUClast iv (area under the drug-time curve for 0-24 h)
[8] = intravenous bolus 1.0 mg/kg, read-out: tz1/2 iv (terminal elimination half-life) (converted)
[9] = po, gavage 5.0 mg/kg, read-out: AUClast po (area under the drug-time curve for 0-24 h)
[10] = po, gavage 5.0 mg/kg, read-out: tz1/2 po (terminal elimination half-life) (converted)

Row | Tmax ([1]; po, gavage 10 mg/kg) [h] | AUC(0-t) [1, 3] [ng·h/mL] | Cmax ([1]; po, gavage 10 mg/kg) [ng/mL] | half-life [1, 4] [h] | AUC(0-t) [1, 5] [ng·h/mL] | clearance ([1]; intravenous bolus 5 mg/kg) [mL/min/kg] | Vd ([1]; intravenous bolus 5 mg/kg) [L/kg] | half-life [1, 6] [h] | bioavailability [1] [%] | AUC(0-t) [2, 7] [ng·h/mL] | clearance ([2]; intravenous bolus 1.0 mg/kg) [mL/min/kg] | Vd ([2]; intravenous bolus 1.0 mg/kg) [L/kg] | half-life [2, 8] [h] | bioavailability [2] [%] | Tmax ([2]; po, gavage 5.0 mg/kg) [h] | AUC(0-t) [2, 9] [ng·h/mL] | Cmax ([2]; po, gavage 5.0 mg/kg) [ng/mL] | half-life [2, 10] [h] | Compound
1 | 1 | 4130 | 820 | 3.04 | 2400 | 30.5 | 6.59 | 2.97 | 75.6 | 749 | 20.2 | 5.01 | 2.97 | 93.1 | 1 | 3790 | 442 | 3.94 | C#Cc1ccc(-c2nnc(N[C@@H]3CCCN(C)C3)cc2C)c(O)c1 [Compound 54, (R)-5-ethynyl-2-(4-methyl-6-((1-methylpiperidin-3-yl)amino)pyridazin-3-yl)phenol]
2 | 0.5 | 20100 | 3160 | 3.82 | 8610 | 9.57 | 2.64 | 3.95 | 116 | 813 | 18.2 | 4.82 | 3.6 | 97 | 2 | 4430 | 465 | 3.51 | CC#Cc1ccc(-c2nnc(N[C@@H]3CCCN(C)C3)cc2C)c(O)c1 [Compound 174, (R)-2-(4-methyl-6-((1-methylpiperidin-3-yl)amino)pyridazin-3-yl)-5-(prop-1-yn-1-yl)phenol]
